According to EPA's ToxValDB 9.5:
Values joined by “and” are separate entries in the source; they are usually repeats but may differ in a detail not shown here. Equal values may be shown once.

Legend:
Coturnix japonica = conditions: repeat dose other; oral
Neovison sp. = conditions: repeat dose other; oral; Mink
Rattus norvegicus [1] = conditions: subchronic, M/F, autoimmune effects (autoimmune glomerulonephritis)
Rattus norvegicus [2] = conditions: short-term; duration: 28 days; oral; gavage; unknown; Wistar; renal
Rattus norvegicus [3] = conditions: injection; for LEL: uterotrophic, duration: 3 days, Active
Mus musculus [4] = conditions: for LOAEL / NOAEL: inhalation
Primate = conditions: inhalation
Rattus norvegicus [5] = conditions: Sprague-Dawley
Rattus norvegicus [6] = conditions: repeat dose other; oral
Rattus norvegicus [7] = conditions: subchronic; duration: 90 days; oral; gavage; Blood: Increased alkaline phosphatase + Blood: Increased SGPT + Brain: Decreased weight
Mus musculus [8] = conditions: oral, M/F; for NOEL: duration: 2 years, Albino, increased liver weight
Rattus norvegicus [9] = conditions: subchronic; duration: 13 weeks; oral; diet; M/F; Fischer 344; Deaths + Body Weight Changes: decrease + Urinalysis: Bright yellow + Absolute Organ Weight: Liver increase + Relative Organ Weight: Liver …
Mus musculus [10] = conditions: subchronic; duration: 13 weeks; oral; diet; Testis: Damage
Cavia porcellus = conditions: acute, Guinea Pig
Mus musculus [11] = conditions: subchronic; oral; M/F; kidney effects (renal tubular pathology, reduced kidney weight)
Mus musculus [12] = conditions: subchronic; duration: 13 weeks; oral; gavage; M/F; CD1; Urinary
Homo sapiens [13] = conditions: clinical; oral; M; Restoration normal sexual desire, erection, ejaculation, and general well-being
Canidae = conditions: oral, capsule, M/F, Histopathological changes in the spleen and bone marrow indicative of anaemia
Rattus norvegicus [14] = conditions: duration: 2 years, oral, M/F, Crl, Reduced bodyweight gain
Homo sapiens [15] = conditions: clinical; oral; M/F; increased prothrombin time
Homo sapiens [16] = conditions: clinical; oral; Blood: Increased prothrombin time
[17] = reproduction developmental, duration: 20 days, F, CD1
[18] = reproduction developmental, duration: 6 days, Macaca Fascicularis
[19] = developmental, duration: 11 days, inhalation
[20] = short-term, duration: 4 weeks, inhalation
[21] = subchronic, duration: 90 days, oral, gavage
[22] = chronic, duration: 78 weeks, diet, CD1, Increased incidences of fatty change & hypertrophy in hepatocytes

Question: With `[Cl][Hg][Cl]` [Mercuric chloride] as the molecule, how does the LOAEL (Coturnix japonica) read?
Answer: The LOAEL was 0.9 mg/kg-day.

Question: What about the NOAEL (Coturnix japonica) of the same molecule?
Answer: The NOAEL was 0.45 mg/kg-day.

Question: And the NOAEL (Neovison sp.)?
Answer: The NOAEL was 1 mg/kg-day.

Question: And the LOAEL (Rattus norvegicus [1]; injection, subcutaneous)?
Answer: The LOAEL was 0.226 mg/kg-day.

Question: What about the LOAEL (Rattus norvegicus [1]; oral, diet) of the same molecule?
Answer: The LOAEL was 0.317 mg/kg-day and 0.633 mg/kg-day.

Question: What about the LOAEL (Rattus norvegicus [2]) of the same molecule?
Answer: The LOAEL was 0.015 mg/kg-day.

Question: And the LEL (Rattus norvegicus [3]; intraperitoneal)?
Answer: The LEL was 1 mg/kg-day.

Question: How did the LOAEL (Mus musculus [4]; developmental, duration: 10 days, CD1) turn out when `CO` [Methanol] was run?
Answer: Its LOAEL is 2620 mg/m3.

Question: And the LOAEL (Mus musculus [4]; developmental, duration: 20 days, CD1)?
Answer: The LOAEL was 13100 mg/m3.

Question: What about the NOAEL (Mus musculus [4]; reproduction developmental, duration: 18 months, B6C3F1) of the same molecule?
Answer: The NOAEL was over 1310 mg/m3.

Question: And the NOAEL (Mus musculus [4]; reproduction developmental, duration: 10 days, F, CD1)?
Answer: Its NOAEL is over 19700 mg/m3.

Question: What about the LOAEL (Mus musculus [4]; [17]) of the same molecule?
Answer: The LOAEL was at most 19700 mg/m3.

Question: What about the NOAEL (Mus musculus [4]; [17]) of the same molecule?
Answer: The NOAEL was at least 13100 mg/m3.

Question: What about the NOAEL (Primate; developmental, duration: 120 days, Macaca Fascicularis) of the same molecule?
Answer: The NOAEL was over 2360 mg/m3.

Question: What about the LOAEL (Primate; [18]) of the same molecule?
Answer: The LOAEL was 6550 mg/m3.

Question: And the NOAEL (Primate; [18])?
Answer: Its NOAEL is 3930 mg/m3.

Question: What about the NOAEL (Primate; reproduction developmental, duration: 120 days, F, Macaca Fascicularis) of the same molecule?
Answer: The NOAEL was over 2360 mg/m3.

Question: And the NOAEL (Primate; reproduction developmental, duration: 365 days, generation: F0)?
Answer: Its NOAEL is over 2360 mg/m3.

Question: What about the LOAEL (Rattus norvegicus [5]; [19]) of the same molecule?
Answer: Its LOAEL is at most 6550 mg/m3.

Question: What about the NOAEL (Rattus norvegicus [5]; [19]) of the same molecule?
Answer: The NOAEL was at least 1310 mg/m3.

Question: What about the LOAEL (Rattus norvegicus [5]; developmental, duration: 19 days, inhalation) of the same molecule?
Answer: Its LOAEL is at most 26200 mg/m3.

Question: And the NOAEL (Rattus norvegicus [5]; reproduction developmental, duration: 11 days, inhalation, F)?
Answer: The NOAEL was over 1310 mg/m3.

Question: What about the LOAEL (Rattus norvegicus [5]; reproduction developmental, duration: 19 days, inhalation, F) of the same molecule?
Answer: The LOAEL was at most 26200 mg/m3.

Question: What about the NOAEL (Rattus norvegicus [5]; reproduction developmental, duration: 365 days, inhalation, generation: F0) of the same molecule?
Answer: The NOAEL was 131 mg/m3.

Question: And the NOAEL (Rattus norvegicus [5]; reproduction developmental, duration: 365 days, inhalation, generation: F1)?
Answer: Its NOAEL is 131 mg/m3.

Question: What about the NOAEL (Rattus norvegicus [5]; reproduction developmental, duration: 365 days, inhalation, generation: F2) of the same molecule?
Answer: Its NOAEL is 131 mg/m3.

Question: And the LOAEL (Rattus norvegicus [5]; [20])?
Answer: The LOAEL was 6550 mg/m3.

Question: What about the NOAEL (Rattus norvegicus [5]; [20]) of the same molecule?
Answer: Its NOAEL is at least 3930 mg/m3.

Question: What about the LOAEL (Rattus norvegicus [5]; [21]) of the same molecule?
Answer: Its LOAEL is 2500 mg/kg-day.

Question: And the NOAEL (Rattus norvegicus [5]; [21])?
Answer: The NOAEL was over 500 mg/kg-day.

Question: And the LOAEL (Rattus norvegicus [6])?
Answer: Its LOAEL is 250 mg/kg-day.

Question: And the NOAEL (Rattus norvegicus [6])?
Answer: The NOAEL was 50 mg/kg-day.

Question: What about the NOEL (Rattus norvegicus [7]) of the same molecule?
Answer: The NOEL was 500 mg/kg-day.

Question: `C[C@](C#N)(COc1cc(C#N)ccc1C(F)(F)F)NC(=O)c1ccc(SC(F)(F)F)cc1` [Monepantel] was tested. Which LOAEL (Mus musculus [8]; [22]) did it give?
Answer: The LOAEL was 5.5 mg/kg-day.

Question: And the NOAEL (Mus musculus [8]; [22])?
Answer: Its NOAEL is 1.8 mg/kg-day.

Question: Which results are given for `O=C1CN(/N=C/c2ccc([N+](=O)[O-])o2)C(=O)N1` [Nitrofurantoin]?
Answer: NOEL (Rattus norvegicus [9]): < 57.6 mg/kg-day; NOAEL (Mus musculus [10]): 59.1 mg/kg-day

Question: `CCCCCCCC/C=C\CCCCCCCC(=O)O` [Oleic acid] was tested. Which LD50 (Cavia porcellus; dermal) did it give?
Answer: The LD50 was over 3000 mg/kg.

Question: Which results are given for `c1cc2ccc3cccc4ccc(c1)c2c34` [Pyrene]?
Answer: LOAEL (Mus musculus [11]): 125 mg/kg-day; NOAEL (Mus musculus [11]): 75 mg/kg-day; NOAEL (Mus musculus [12]): 75 mg/kg-day

Question: How did the NOEL (Rattus norvegicus [3]; Hershberger, duration: 7 days, subcutaneous, Sprague-Dawley, active + Androgenic + androgenic) turn out when `C[C@]12CC[C@H]3[C@@H](CCC4=CC(=O)CC[C@@]43C)[C@@H]1CC[C@@H]2O` [Testosterone] was run?
Answer: The NOEL was 0.1 mg/kg-day.

Question: And the LEL (Rattus norvegicus [3]; subcutaneous)?
Answer: The LEL was 0.2 mg/day.

Question: And the NOEL (Homo sapiens [13])?
Answer: The NOEL was 1.7 mg/kg-day.

Question: For `O=C1OC(=O)C2CC=CCC12` (stereo not drawn) [Tetrahydrophthalic anhydride], which LD50 (Cavia porcellus; oral) is on record?
Answer: The LD50 was 3500 mg/kg.

Question: What about the LD50 (Mus musculus [4]; acute, oral) of the same molecule?
Answer: Its LD50 is 3300 mg/kg.

Question: Which NOEL (Canidae; chronic, duration: 1 years, Beagle) does the source give for `c1ccc2[nH]c(-c3cscn3)nc2c1` [Thiabendazole] here?
Answer: The NOEL was 10 mg/kg-day.

Question: What about the NOEL (Canidae; chronic, duration: 1 years, Dog Other) of the same molecule?
Answer: The NOEL was 10 mg/kg-day.

Question: And the NOEL (Canidae; duration: 1 year, Beagle)?
Answer: The NOEL was 10 mg/kg-day.

Question: What about the NOEL (Canidae; duration: 1 year, Dog Other) of the same molecule?
Answer: The NOEL was 10 mg/kg-day.

Question: What about the LOEL (Rattus norvegicus [14]; chronic, diet) of the same molecule?
Answer: The LOEL was 40 mg/kg-day.

Question: What about the NOEL (Rattus norvegicus [14]; chronic, diet) of the same molecule?
Answer: The NOEL was 10 mg/kg-day.

Question: What about the LOEL (Rattus norvegicus [14]; feed) of the same molecule?
Answer: The LOEL was 40 mg/kg-day.

Question: And the NOEL (Rattus norvegicus [14]; feed)?
Answer: Its NOEL is 10 mg/kg-day.

Question: Which NOEL (Mus musculus [8]; Chronic / dietary, feed) does the source give for `CSc1nc2cc(Oc3cccc(Cl)c3Cl)c(Cl)cc2[nH]1` [Triclabendazole] here?
Answer: The NOEL was 0.27 mg/kg-day.

Question: And the NOEL (Mus musculus [8]; chronic, diet)?
Answer: Its NOEL is 0.27 mg/kg-day.

Question: With `CC(=O)CC(c1ccccc1)c1c(O)c2ccccc2oc1=O` (stereo not drawn) [Warfarin] as the molecule, how does the LOAEL (Homo sapiens [15]) read?
Answer: Its LOAEL is 0.029 mg/kg-day.

Question: What about the LOAEL (Homo sapiens [16]) of the same molecule?
Answer: Its LOAEL is 2 mg/day.
